This passage reports Emax and EC50 results from patent US10280165B2, “Pyridopyrimidinones and methods of use thereof” (Genentech, Inc., priority 2015, dated 2019).

The target of the assay is HEK cells stably transfected with tetracycline inducible hNR1 and hNR2A (Homo sapiens (Human), UniProt Q05586+Q12879). Briefly: Assay 1: Cell-Based Assay (cytosolic calcium, positive allosteric modulation). The settings on record: for Emax: HEK293, scaled relative to 100 μM L-glutamate maximal response (100%) and 0 μM L-glutamate (0%), with 30 μM glycine and 300 nM L-glutamate, read-out: Max %; for EC50: with 30 μM glycine and 300 nM L-glutamate (EC30), given for compounds reaching maximal response plateaus. The method, then:
Assay 1: Cell-Based Assay
HEK cells stably transfected with tetracycline inducible hNR1 and hNR2A were seeded into clear bottom 384 well poly-D-lysine coated plates (2.5×10^4 cells per well) in Minimum Essential Media (MEM; without L-) including 7.5 μg mL doxycycline and 500 μM (+)-ketamine. The cells were incubated at 37° C. in 5% CO2 for 24 h. For measurement of changes in cytosolic calcium, the seeding media was removed and the cells incubated at 37° C. for 60 min with 1× Becton Dickinson Calcium Assay Kit reagent in Hanks Balanced Salt Solution (HBSS; w/o magnesium, including 1.8 mM calcium, 0.65 mg ml^−1 probenecid and 10 μM (+)-ketamine, pH 7.15) then allowed to equilibrate to rt for 30 min. Concentration-effect curves to Positive Allosteric Modulators (PAMs) were constructed by adding different concentrations (with 30 μM glycine and 300 nM L-glutamate (EC30)) to different wells in HBSS. Compounds were added after a 10 second baseline read and maximum level of relative fluorescence units (RFU) was measured over a 5 min period. Responses were scaled relative to 100 μM L-glutamate maximal response (100%) and 0 μM L-glutamate (0%). EC50 values are provided for compounds reaching maximal response plateaus, and the max % (EC50 (--)) only if no plateau was reached.
A four-parameter Hill equation was fitted to individual concentration-effect curves:
[formula] in which Y, S0, Sinf, AC50, n and c were effect, lower-asymptote, upper-asymptote, mid-point location, slope parameter, and concentration respectively.

Molecules are shown by their SMILES.

Sequence of HEK cells stably transfected with tetracycline inducible hNR1 and hNR2A (Q12879 23-1464, other chains not shown): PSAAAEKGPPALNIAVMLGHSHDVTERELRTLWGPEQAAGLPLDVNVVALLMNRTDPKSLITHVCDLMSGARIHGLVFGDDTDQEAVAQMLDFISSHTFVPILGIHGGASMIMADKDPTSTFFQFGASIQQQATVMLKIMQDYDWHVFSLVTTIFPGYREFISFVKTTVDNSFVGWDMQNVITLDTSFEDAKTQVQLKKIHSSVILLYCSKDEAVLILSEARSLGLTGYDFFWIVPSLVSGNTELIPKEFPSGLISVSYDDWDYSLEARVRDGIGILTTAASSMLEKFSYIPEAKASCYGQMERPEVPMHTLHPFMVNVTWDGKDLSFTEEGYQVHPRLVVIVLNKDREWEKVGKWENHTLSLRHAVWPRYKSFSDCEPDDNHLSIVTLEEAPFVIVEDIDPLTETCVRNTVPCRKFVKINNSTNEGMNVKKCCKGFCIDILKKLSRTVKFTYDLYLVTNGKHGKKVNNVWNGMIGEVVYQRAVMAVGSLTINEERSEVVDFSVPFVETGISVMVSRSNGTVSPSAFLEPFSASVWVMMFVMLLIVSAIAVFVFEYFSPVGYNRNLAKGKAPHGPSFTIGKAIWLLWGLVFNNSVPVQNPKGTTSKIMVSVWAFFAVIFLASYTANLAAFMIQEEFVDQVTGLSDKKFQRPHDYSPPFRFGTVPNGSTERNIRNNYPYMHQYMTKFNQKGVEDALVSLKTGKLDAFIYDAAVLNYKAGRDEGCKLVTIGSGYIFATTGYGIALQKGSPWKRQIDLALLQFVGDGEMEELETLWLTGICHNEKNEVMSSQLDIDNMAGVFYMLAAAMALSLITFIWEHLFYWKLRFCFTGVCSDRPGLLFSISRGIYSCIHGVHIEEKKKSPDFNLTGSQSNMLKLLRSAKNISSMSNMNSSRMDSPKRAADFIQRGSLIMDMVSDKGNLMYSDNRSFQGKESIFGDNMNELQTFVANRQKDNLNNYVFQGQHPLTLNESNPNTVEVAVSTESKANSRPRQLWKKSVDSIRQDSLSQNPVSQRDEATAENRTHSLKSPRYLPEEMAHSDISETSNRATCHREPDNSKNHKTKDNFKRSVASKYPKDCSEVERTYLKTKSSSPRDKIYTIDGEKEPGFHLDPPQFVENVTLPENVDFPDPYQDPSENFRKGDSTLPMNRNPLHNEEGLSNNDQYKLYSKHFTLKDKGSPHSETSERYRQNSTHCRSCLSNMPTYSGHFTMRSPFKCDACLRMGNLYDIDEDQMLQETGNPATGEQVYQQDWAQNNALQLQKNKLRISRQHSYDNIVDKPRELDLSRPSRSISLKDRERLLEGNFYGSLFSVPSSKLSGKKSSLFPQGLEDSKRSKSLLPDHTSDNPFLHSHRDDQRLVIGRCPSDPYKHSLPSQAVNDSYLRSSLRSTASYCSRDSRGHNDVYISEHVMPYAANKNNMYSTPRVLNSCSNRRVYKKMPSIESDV

`N#C[C@H]1C[C@@H]1c1c(Cl)ccc2nc(Cn3nc(C(F)(F)F)cc3Cl)cc(=O)n12` [Compound 42, (1S,2S)-2-[7-chloro-2-[[5-chloro-3-(trifluoromethyl)pyrazol-1-yl]methyl]-4-oxo-pyrido[1,2-a]pyrimidin-6-yl]cyclopropanecarbonitrile]: the Emax was 110% and the EC50 turned out to be 10.6 µM.

For `CCNC(=O)c1cccc2nc(Cn3nc(C(F)(F)F)cc3C3CC3)cc(=O)n12` [Compound 20, 2-[[5-cyclopropyl-3-(trifluoromethyl)pyrazol-1-yl]methyl]-N-ethyl-4-oxo-pyrido[1,2-a]pyrimidine-6-carboxamide], the Emax amounted to 116% and the EC50 amounted to 7.4 µM. In the same order, the values of `O=c1cc(Cn2nc(C(F)(F)F)cc2Cl)nc2cc(C(F)(F)F)cc(Cl)n12` [Compound 54, 6-chloro-2-[[5-chloro-3-(trifluoromethyl)pyrazol-1-yl]methyl]-8-(trifluoromethyl)pyrido[1,2-a]pyrimidin-4-one] are 150% and 24.7 µM. In the same order, the values of `CCOc1cccc2nc(CN(CC)c3ccc(F)cc3)cc(=O)n12` [Compound 9, 6-ethoxy-2-[(N-ethyl-4-fluoro-anilino)methyl]pyrido[1,2-a]pyrimidin-4-one] are 120% and 5 µM. As for `N#C[C@@H]1C[C@H]1c1c(F)ccc2nc(Cn3nc(C(F)(F)F)cc3Cl)cc(=O)n12` [Compound 45, (1R,2R)-2-[2-[[5-chloro-3-(trifluoromethyl)pyrazol-1-yl]methyl]-7-fluoro-4-oxo-pyrido[1,2-a]pyrimidin-6-yl]cyclopropanecarbonitrile], the Emax amounted to 151%. Regarding `Cc1cc(C2CC2C#N)n2c(=O)cc(Cn3nc(Cl)cc3C(F)(F)F)nc2c1` (stereo not drawn) [Compound 43, 2-[2-[[3-chloro-5-(trifluoromethyl)pyrazol-1-yl]methyl]-8-methyl-4-oxo-pyrido[1,2-a]pyrimidin-6-yl]cyclopropanecarbonitrile], the Emax amounted to 145% and the EC50 came to 0.269 µM. Take `CCNC(=O)c1c(C)ccc2nc(COc3ccc(F)cc3)cc(=O)n12` [Compound 16, N-ethyl-2-[(4-fluorophenoxy)methyl]-7-methyl-4-oxo-pyrido[1,2-a]pyrimidine-6-carboxamide]: the Emax was 159% and the EC50 worked out at 3.6 µM.

Turning to `COc1ccc2nc(Cn3nc(C(F)(F)F)cc3Cl)cc(=O)n2c1[C@@H]1C[C@H]1C#N` [Compound 52, (1R,2R)-2-[2-[[5-chloro-3-(trifluoromethyl)pyrazol-1-yl]methyl]-7-methoxy-4-oxo-pyrido[1,2-a]pyrimidin-6-yl]cyclopropanecarbonitrile], the Emax is 120% and the EC50 was 0.079 µM. With `CCN(Cc1cc(=O)n2c(C(=O)NC)c(C)ccc2n1)c1ccc(F)cc1` [Compound 27, 2-[(N-ethyl-4-fluoro-anilino)methyl]-N,7-dimethyl-4-oxo-pyrido[1,2-a]pyrimidine-6-carboxamide], the Emax worked out at 162% and the EC50 was 2.7 µM. With `CCN(Cc1cc(=O)n2c(OC)cccc2n1)c1ccc(F)cc1` [Compound 8, 2-[(N-ethyl-fluoro-anilino)methyl]-6-methoxy-pyrido[1,2-a]pyrimidin-4-one], the Emax turned out to be 117%.

For the compound `CCNC(=O)c1c(C)ccc2nc(Cc3cccc(C#N)c3F)cc(=O)n12` [Compound 19, 2-[(3-cyano-2-fluoro-phenyl)methyl]-N-ethyl-7-methyl-4-oxo-pyrido[1,2-a]pyrimidine-6-carboxamide], the Emax came out at 65%. Turning to `CCN(Cc1cc(=O)n2cc(C)ccc2n1)c1ccccc1` [Compound 3, 2-[(N-ethylanilino)methyl]-7-methyl-pyrido[1,2-a]pyrimidin-4-one], the Emax was determined as 122% and the EC50 was 11.1 µM. As to `CCNC(=O)c1cccc2nc(Cc3cccc(C#N)c3F)cc(=O)n12` [Compound 21, 2-[(3-cyano-2-fluoro-phenyl)methyl]-N-ethyl-4-oxo-pyrido[1,2-a]pyrimidine-6-carboxamide], the Emax came to 43%.

For `O=c1cc(Cn2nc(C(F)(F)F)cc2Cl)nc2ccccn12` [Compound 48, 2-[[5-chloro-3-(trifluoromethyl)pyrazol-1-yl]methyl]pyrido[1,2-a]pyrimidin-4-one], the Emax turned out to be 73% and the EC50 is 32.4 µM.

Regarding `CNC(=O)c1c(C)ccc2nc(Cc3cccc(C4CC4)c3F)cc(=O)n12` [Compound 24, 2-[(3-cyclopropyl-2-fluoro-phenyl)methyl]-N,7-dimethyl-4-oxo-pyrido[1,2-a]pyrimidine-6-carboxamide], the Emax was 67%. Same read-out and setting: for `CNC(=O)c1c(C)ccc2nc(Cn3nc(C4CC4)cc3C(F)(F)F)cc(=O)n12` [Compound 30, 2-[[3-cyclopropyl-5-(trifluoromethyl)pyrazol-1-yl]methyl]-N,7-dimethyl-4-oxo-pyrido[1,2-a]pyrimidine-6-carboxamide] the value was 101%.

Turning to `CC(=O)c1c(C)ccc2nc(Cn3nc(Cl)cc3C(F)(F)F)cc(=O)n12` [Compound 51, 6-acetyl-2-[[3-chloro-5-(trifluoromethyl)pyrazol-1-yl]methyl]-7-methyl-pyrido[1,2-a]pyrimidin-4-one], the Emax was determined as 114% and the EC50 amounted to 9.1 µM. For `Cc1ccc2nc(Cn3nc(C(F)(F)F)cc3C3CC3)cc(=O)n2c1C(=O)NCC(F)(F)F` [Compound 33, 2-[[5-cyclopropyl-3-(trifluoromethyl)pyrazol-1-yl]methyl]-7-methyl-4-oxo-N-(2,2,2-trifluoroethyl)pyrido[1,2-a]pyrimidine-6-carboxamide], the Emax came to 198%. As to `CC(=O)c1cccc2nc(Cn3nc(C(F)(F)F)cc3Cl)cc(=O)n12` [Compound 49, 6-acetyl-2-[[5-chloro-3-(trifluoromethyl)pyrazol-1-yl]methyl]pyrido[1,2-a]pyrimidin-4-one], the Emax was 126% and the EC50 is 12.3 µM. Turning to `CCN(Cc1cc(=O)n2cc(C)ccc2n1)c1ccc(F)cc1` [Compound 4, 2-[(N-ethyl-4-fluoro-anilino)methyl]-7-methyl-pyrido[1,2-a]pyrimidin-4-one], the Emax is 134% and the EC50 came out at 5.2 µM.

What is called EC50 is the concentration at which the effect is half-maximal.
